Data: article PMC9780857 (International Journal of Molecular Sciences, 2022)
≈ marks a conversion by molar mass, not a printed value. Where “and” joins values, the source holds several entries; their conditions need not be identical. Equal entries are not always repeated. Entries after “also recorded” stand apart in the source; their conditions may differ. Where two headings read alike, the source gives them in different places.

How the values were obtained:
[1] = system: MATEs; set-up: method as in ref 33 (Wittwer et al.); conditions: ref 33 (Wittwer et al.); read-out: IC50, MATEs-mediated ASP+ uptake; cited from earlier work
[2] = biological target: T1, mOct2 (Mus musculus, UniProt O70577); test: Inhibition of mOct2-mediated 14C-metformin uptake in transfected HEK293 cells; type: cell-based; set-up: expressed in transfected cells; host or cells: HEK293 (stably transfected)
T1 sequence (O70577 1-553): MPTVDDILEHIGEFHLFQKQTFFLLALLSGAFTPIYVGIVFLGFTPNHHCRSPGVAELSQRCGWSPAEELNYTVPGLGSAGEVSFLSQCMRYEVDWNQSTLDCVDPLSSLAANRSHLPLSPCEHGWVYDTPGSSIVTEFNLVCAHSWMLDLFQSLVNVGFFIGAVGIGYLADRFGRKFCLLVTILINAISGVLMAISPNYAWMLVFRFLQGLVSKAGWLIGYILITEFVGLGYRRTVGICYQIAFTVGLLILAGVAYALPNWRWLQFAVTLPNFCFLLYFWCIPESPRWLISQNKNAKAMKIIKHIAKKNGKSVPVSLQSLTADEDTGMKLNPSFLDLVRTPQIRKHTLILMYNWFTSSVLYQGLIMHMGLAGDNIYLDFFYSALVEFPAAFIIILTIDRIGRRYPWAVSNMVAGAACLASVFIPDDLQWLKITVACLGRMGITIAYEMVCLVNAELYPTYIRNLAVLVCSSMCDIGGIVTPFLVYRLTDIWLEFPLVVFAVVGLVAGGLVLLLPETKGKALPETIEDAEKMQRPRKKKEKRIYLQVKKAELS
Experimental: (§1) The uptake assays were performed as previously described in 24-well plates. […] After incubation, the uptake was stopped by aspirating the reaction mixture and washing the cells three times with 0.4 mL ice-cold PBS buffer. Cells were then solubilized with 0.6 mL of 1 N NaOH, overnight. The whole content of each well (0.6 mL) was transferred to a scintillation vial (Perkin Elmer). The radio-labelled amount was determined by liquid scintillation counting.
(§2) All inhibition experiments were conducted on at least two separate days in triplicate.
(§3) For screening experiments, cis-inhibition was carried out in duplicate by measuring the uptake of the labeled probe substrate in the absence and presence of 10 µM or 100 µM of the respective pesticide or drug. […] Inhibitory effects in percent were calculated from net-uptake. […]

[3] = biological target: T2, hOCT2 (Homo sapiens, UniProt O15244); test: Inhibition of hOCT2-mediated 14C-metformin uptake in transfected HEK293 cells; type: cell-based; set-up: expressed in transfected cells; host or cells: HEK293 (stably transfected)
T2 sequence (O15244 1-555): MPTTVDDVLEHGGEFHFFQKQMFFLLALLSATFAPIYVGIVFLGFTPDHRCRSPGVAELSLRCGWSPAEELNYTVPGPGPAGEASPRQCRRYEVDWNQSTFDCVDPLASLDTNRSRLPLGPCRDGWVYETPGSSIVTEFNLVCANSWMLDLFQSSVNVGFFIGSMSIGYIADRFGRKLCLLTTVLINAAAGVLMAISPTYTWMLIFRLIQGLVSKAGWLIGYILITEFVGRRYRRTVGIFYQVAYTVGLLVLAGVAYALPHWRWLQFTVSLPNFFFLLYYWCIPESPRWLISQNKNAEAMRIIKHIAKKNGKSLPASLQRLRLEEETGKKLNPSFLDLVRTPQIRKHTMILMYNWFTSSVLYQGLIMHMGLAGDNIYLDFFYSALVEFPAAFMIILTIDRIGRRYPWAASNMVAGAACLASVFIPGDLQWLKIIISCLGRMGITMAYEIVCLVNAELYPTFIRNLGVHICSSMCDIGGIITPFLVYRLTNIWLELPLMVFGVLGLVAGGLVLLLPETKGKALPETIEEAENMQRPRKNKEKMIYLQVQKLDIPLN
Experimental: as §1, §2, §3

[4] = biological target: T2, hOCT2; test: Inhibition of hOCT2-mediated 3H-MPP uptake in transfected HEK293 cells; type: cell-based; set-up: expressed in transfected cells; host or cells: HEK293 (stably transfected)
Experimental: (§4) With cDNA of hOCT2 (GeneBank: accession number: NM_003058.3) or mOct2 (NM_013667.2), stably overexpressing HEK293 cells were used for the experiments and empty vector-transfected HEK cells were used as control-HEK cells.
(§5) The uptake assays were performed as previously described in 24-well plates. Therefore, culture medium was aspirated, and each well was rinsed three times with 0.5 mL incubation buffer (HBSS supplemented with 20 mM HEPES, pH 7.4) and then incubated in 200 µL dosing solution containing ^3H-MPP or ^14C-metformin and the test compound. After incubation, the uptake was stopped by aspirating the reaction mixture and washing the cells three times with 0.4 mL ice-cold PBS buffer. Cells were then solubilized with 0.6 mL of 1 N NaOH, overnight. The whole content of each well (0.6 mL) was transferred to a scintillation vial (Perkin Elmer). The radio-labelled amount was determined by liquid scintillation counting.
(§6) […]. All inhibition experiments were conducted on at least two separate days in triplicate.
(§7) The Km and Vmax values were obtained using SigmaPlot version 13 by fitting the Michaelis–Menten equation V = Vmax*[S]/(Km + [S]), where V refers to the rate of substrate transport, Vmax refers to the maximum rate of substrate transport, [S] refers to the concentration of substrate, and Km is defined as the concentration of substrate at the half-maximal transport rate.

[5] = biological target: T1, mOct2; test: Inhibition of mOct2-mediated 3H-MPP uptake in transfected HEK293 cells; type: cell-based; set-up: expressed in transfected cells; host or cells: HEK293 (stably transfected)
Experimental: as §4, §5, §6, §7

[6] = Highest soluble concentration in assay buffer (determined visually); type: physicochemical; conditions: assay buffer (HBSS/HEPES), aqueous buffer, HBSS/HEPES pH 7.4
[7] = biological target: T2, hOCT2; set-up: expressed in transfected cells; host or cells: HEK293 (stably transfected); conditions: cited from earlier work
[8] = biological target: T2, hOCT2; conditions: read-out: IC50, hOCT2-mediated metformin uptake; cited from earlier work
[9] = system: OCT2; set-up: method as in PMID 19833842; conditions: OCT2-overexpressing HEK293 cells; read-out: IC50, YM155 uptake; cited from earlier work
[10] = biological target: T2, hOCT2; set-up: expressed in transfected cells; host or cells: HEK293 (stably transfected); method as in ref 39 (Vermeer et al.); conditions: ref 39 (Vermeer et al.); cited from earlier work
[11] = biological target: T1, mOct2; conditions: MPP higher affinity than metformin
Experimental: as §1
(§8) All experiments were conducted on two separate days in triplicate.
(§9) The cellular protein amounts were analyzed in parallel to the transport experiments by the Bradford method as previously described.
as §7

[12] = biological target: T2, hOCT2; conditions: MPP higher affinity than metformin
Experimental: as §1, §8, §9, §7

[13] = biological target: T2, hOCT2; set-up: method as in PMID 9260930; conditions: OCT2-overexpressing oocytes (procainamid); read-out: IC50, hOCT2-mediated TEA uptake; cited from earlier work
[14] = biological target: T2, hOCT2; set-up: expressed in transfected cells; host or cells: HEK293 (stably transfected); conditions: cited from earlier work; remark: listed apart in the source
[15] = HEK293; read-out: Inhibitory Effects (%) mOct2 10 µM Mean
[16] = HEK293; read-out: Inhibitory Effects (%) mOct2 100 µM Mean
[17] = HEK293, 10 µM test compound; 1 µM [14C]metformin, 2 min, HEK293; negative = stimulation; read-out: Inhibitory Effects (%) hOCT2 10 µM Mean
[18] = HEK293, 100 µM test compound; 1 µM [14C]metformin, 2 min, HEK293; negative = stimulation; read-out: Inhibitory Effects (%) hOCT2 100 µM Mean
[19] = up to 100 µM (highest soluble concentration)
[20] = HEK293; read-out: Inhibitory Effects (%) hOCT2 10 µM Mean
[21] = HEK293; read-out: Inhibitory Effects (%) hOCT2 100 µM Mean
[22] = 10 µM test compound; 1 µM [14C]metformin, 2 min, HEK293; negative = stimulation
[23] = HEK293, 10 µM test compound; 1 µM [14C]metformin, 2 min, HEK293; negative = stimulation; read-out: Inhibitory Effects (%) mOct2 10 µM Mean
[24] = HEK293, 100 µM test compound; 1 µM [14C]metformin, 2 min, HEK293; negative = stimulation; read-out: Inhibitory Effects (%) mOct2 100 µM Mean
[25] = 100 µM test compound; 1 µM [14C]metformin, 2 min, HEK293; negative = stimulation

Structure (SMILES): CC(C)c1nc(CN(C)C(=O)N[C@H](C(=O)N[C@@H](Cc2ccccc2)C[C@H](O)[C@H](Cc2ccccc2)NC(=O)OCc2cncs2)C(C)C)cs1 [Ritonavir]
- IC50 [1]: 4400 nM
- inhibition at 10 µM [2, 15]: 1%
- inhibition at 100 µM [2, 16]: -8%
- inhibition at 10 µM [3, 17]: -10%
- inhibition at 100 µM [3, 18]: -38%

Structure (SMILES): COc1cc2c(cc1OC)CN(CCc1ccc(NC(=O)c3cccc4c(=O)c5cccc(OC)c5[nH]c34)cc1)CC2 [Elacridar]
- IC50, hOCT2-mediated MPP uptake ([4]; 2 nM [3H]MPP): no IC50 value could be determined; also recorded: calculation of an IC50 value was not possible
- Maximum inhibition of hOCT2-mediated MPP uptake [4, 19]: ≤ 60%
- IC50, mOct2-mediated MPP uptake ([5]; 2 nM [3H]MPP): no IC50 value could be determined; also recorded: calculation of an IC50 value was not possible
- Maximum inhibition of mOct2-mediated MPP uptake [5, 19]: ≤ 60%
- IC50 [2]: 1900 nM
- inhibition at 10 µM [2, 15]: 56%
- inhibition at 100 µM [2, 16]: 81%
- Fold higher inhibitory potency to mouse than to human OCT2 (IC50 ratio) ([2]; metformin as substrate): 10 fold
- solubility [6]: 100 µM (≈ 56.4 µg/mL)
- IC50 [3]: 20000 nM
- inhibition at 10 µM [3, 20]: 25%
- inhibition at 100 µM [3, 21]: 65%

Structure (SMILES): Clc1cccc(Cl)c1N=C1NCCN1 [Clonidine]
- IC50 ([7]; read-out: IC50, hOCT2-mediated MPP uptake): 6000 nM
- IC50 [8]: 680 nM
- Inhibitory Effects (%) mOct2 10 µM Mean [2, 22]: 54%
- inhibition at 10 µM [2, 23]: 46%
- inhibition at 100 µM [2, 24]: 89%
- Inhibitory Effects (%) hOCT2 10 µM Mean [3, 22]: 40%
- inhibition at 10 µM [3, 17]: 60%
- inhibition at 100 µM [3, 18]: 76%

Structure (SMILES): CCN(CC)CCNC(=O)c1ccc(N)cc1 [Procainamid]
- IC50 [9]: 92000 nM
- inhibition at 10 µM [2, 23]: -16%
- inhibition at 100 µM [2, 24]: -30%
- inhibition at 10 µM [3, 20]: -20%
- inhibition at 100 µM [3, 21]: -44%

Structure (SMILES): CC(=O)N1CCN(c2ccc(OCC3COC(Cn4ccnc4)(c4ccc(Cl)cc4Cl)O3)cc2)CC1 (stereo not drawn) [Ketoconazole]
- IC50 [10]: 890 nM
- inhibition at 10 µM [2, 15]: 49%
- inhibition at 100 µM [2, 16]: 87%
- inhibition at 10 µM [3, 17]: 31%
- inhibition at 100 µM [3, 18]: 87%

Structure (SMILES): C[n+]1ccc(-c2ccccc2)cc1.[I-] [MPP, 1-Methyl-4-phenylpyridinium iodide]
- Fold difference in affinity (Km) of mOct2 between MPP and metformin [11]: 89 fold
- Fold difference in affinity (Km) of hOCT2 between MPP and metformin [12]: 64 fold

Structure (SMILES): CCN1/C(=C/c2ccc3ccccc3[n+]2CC)C=Cc2ccccc21.[I-] [Decynium22]
- IC50 ([7]; read-out: IC50, MPP uptake in hOCT2-HEK293 cells, HEK293, ref 28 (Hayer-Zillgen et al. 2002)): 1300 nM
- IC50 [13]: 100 nM
- Fold higher IC50 for hOCT2 than for mOct2 ([4]; MPP as substrate): 2 fold and 2.3 fold
- IC50 ([4]; read-out: IC50, hOCT2-mediated MPP uptake, control inhibitor, MPP at its Km, 0.1-100 µM inhibitor): 16000 nM
- IC50 ([5]; read-out: IC50, mOct2-mediated MPP uptake, control inhibitor, MPP at its Km, 0.1-100 µM inhibitor): 6900 nM
- Fold higher inhibitory potential on metformin uptake compared to MPP uptake, mOct2 [2]: 2.7 fold
- Inhibitory Effects (%) mOct2 10 µM Mean [2, 22]: 72%
- Inhibitory Effects (%) mOct2 100 µM Mean [2, 25]: 97%
- IC50 ([2]; read-out: IC50, mOct2-mediated metformin uptake; control inhibitor; 350 µM metformin; 0.1-100 µM inhibitor): 2600 nM
- Fold higher inhibitory potential on metformin uptake compared to MPP uptake, hOCT2 [3]: 7.2 fold
- Inhibitory Effects (%) hOCT2 10 µM Mean [3, 22]: 67%
- Inhibitory Effects (%) hOCT2 100 µM Mean [3, 25]: 96%
- IC50 ([3]; read-out: IC50, hOCT2-mediated metformin uptake; control inhibitor; 350 µM metformin; 0.1-100 µM inhibitor): 2200 nM

Structure (SMILES): C[n+]1ccc(-c2cc[n+](C)cc2)cc1 [Paraquat]
- Km ([14]; read-out: Km, concentration dependent uptake by human OCT2): 114 µM
- inhibition at 10 µM ([2]; HEK293, read-out: Inhibitory Effects (%) mOct2 10 µM Mean): -9%
- inhibition at 100 µM ([2]; HEK293, read-out: Inhibitory Effects (%) mOct2 100 µM Mean): -48%
- inhibition at 10 µM ([3]; HEK293, read-out: Inhibitory Effects (%) hOCT2 10 µM Mean): -15%
- inhibition at 100 µM ([3]; HEK293, read-out: Inhibitory Effects (%) hOCT2 100 µM Mean): -52%

Structure (SMILES): CNC(=C[N+](=O)[O-])NCCSCc1ccc(CN(C)C)o1 [Ranitidine]
- Km ([14]; ref 36 (Tahara et al.), read-out: Km, substrate of hOCT2): 65.2 µM
- inhibition at 10 µM [2, 15]: -37%
- inhibition at 100 µM [2, 16]: -16%
- inhibition at 10 µM [3, 17]: -43%
- inhibition at 100 µM [3, 18]: -33%
